In US9695155B2, “Herbicidal substituted pyrimidinyloxy benzene compounds” (E. I. DU PONT DE NEMOURS AND COMPANY, priority 2013, dated 2017):

What was measured:
[1] = tested on: corn; assay: Test E preemergence; assay type: in vivo, Zea mays; conditions: for Corn plant response rating: scale 0 to 100 (0 no effect, 100 complete control); for Plant response rating, Corn: scale 0 to 100, 0 no effect, 100 complete control
Text: (§1) Seeds of plant species selected from corn (Zea mays), soybean (Glycine max), velvetleaf (Abutilon theophrasti), lambsquarters (Chenopodium album), wild poinsettia (Euphorbia heterophylla), palmer pigweed (Amaranthus palmeri), waterhemp (common waterhemp, Amaranthus rudis), surinam grass (Brachiaria decumbens), large (Lg) crabgrass (Digitaria sanguinalis), Brazilian crabgrass (Digitaria horizontalis), fall panicum (Panicum dichotomiflorum), giant foxtail (Setaria faberii), green foxtail (Setaria viridis), goosegrass (Eleusine indica), johnsongrass (Sorghum halepense), ragweed (common ragweed, Ambrosia elatior), barnyardgrass (Echinochloa crus-galli), sandbur (southern sandbur, Cenchrus echinatus), arrowleaf sida (Sida rhombifolia), Italian ryegrass (Lolium multiflorum), dayflower (Virginia (VA) dayflower, Commelina virginica), field bindweed (Convolvulus arvensis), morningglory (Ipomoea coccinea), nightshade (eastern black nightshade, Solanum ptycanthum), kochia (Kochia scoparia), yellow nutsedge (Cyperus esculentus), cocklebur (common cocklebur, Xanthium strumarium), smartweed (ladysthumb smartweed, and hairy beggarticks (Bidens pilosa), were planted into a silt loam soil and treated preemergence with test chemicals formulated in a non-phytotoxic solvent mixture which included a surfactant.
(§2) At the same time, plants from these crop and weed species and also horseweed (Canada horseweed, Conyza canadensis), waterhemp_RES1, (ALS & Triazine resistant common waterhemp, Amaranthus rudis), and waterhemp_RES2, (ALS & HPPD resistant common waterhemp, Amaranthus rudis) were planted in pots containing Redi-Earth® planting medium (Scotts Company, 14111 Scottslawn Road, Marysville, Ohio 43041) comprising spaghnum peat moss, vermiculite, wetting agent and starter nutrients were treated with postemergence applications of test chemicals formulated in the same manner. Plants ranged in height from 2 to 18 cm for postemergence treatments (1- to 4-leaf stage). Treated plants and controls were maintained in a greenhouse for 14 to 21 days, after which time all species were compared to controls and visually evaluated. Plant response ratings, summarized in Table E, are based on a scale of 0 to 100 where 0 is no effect and 100 is complete control. A dash (-) response means no test result.

[2] = tested on: surinam grass; assay: Test E preemergence; assay type: in vivo, Brachiaria decumbens; conditions: for Surinam Grass plant response rating: scale 0 to 100 (0 no effect, 100 complete control); for Plant response rating, Surinam Grass: scale 0 to 100, 0 no effect, 100 complete control
Text: as §1, §2

[3] = tested on: fall panicum; assay: Test E preemergence; assay type: in vivo, Panicum dichotomiflorum; conditions: for Panicum, Fall plant response rating: scale 0 to 100 (0 no effect, 100 complete control); for Plant response rating, Panicum, Fall: scale 0 to 100, 0 no effect, 100 complete control
Procedure, shortened: (§3)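 Response was scored visually on a 0-100 scale (100 = complete control) versus controls after 14 to 21 days in the greenhouse. Test chemicals, formulated with surfactant in a non-phytotoxic solvent mixture, had been applied preemergence to seeds in silt loam soil or postemergence to 1- to 4-leaf plants in potting medium.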

[4] = tested on: green foxtail; assay: Test E preemergence; assay type: in vivo, Setaria viridis; conditions: for Foxtail, Green plant response rating: scale 0 to 100 (0 no effect, 100 complete control); for Plant response rating, Foxtail, Green: scale 0 to 100, 0 no effect, 100 complete control
Text: as §1, §2

[5] = tested on: barnyardgrass; assay: Test E preemergence; assay type: in vivo, Echinochloa crus-galli; conditions: preemergence; for Barnyardgrass plant response rating: scale 0 to 100 (0 no effect, 100 complete control); for Plant response rating, Barnyardgrass: scale 0 to 100, 0 no effect, 100 complete control
Text: as §1, §2

[6] = tested on: arrowleaf sida; assay: Test E preemergence; assay type: in vivo, Sida rhombifolia; conditions: preemergence; for Arrowleaf Sida plant response rating: scale 0 to 100 (0 no effect, 100 complete control); for Plant response rating, Arrowleaf Sida: scale 0 to 100, 0 no effect, 100 complete control
Text: as §1, §2

[7] = tested on: field bindweed; assay: Test E preemergence; assay type: in vivo, Convolvulus arvensis; conditions: for Field Bindweed plant response rating: scale 0 to 100 (0 no effect, 100 complete control); for Plant response rating, Field Bindweed: scale 0 to 100, 0 no effect, 100 complete control
Text: as §1, §2

[8] = tested on: kochia; assay: Test E preemergence; assay type: in vivo, Kochia scoparia; conditions: for Kochia plant response rating: scale 0 to 100 (0 no effect, 100 complete control); for Plant response rating, Kochia: scale 0 to 100, 0 no effect, 100 complete control
Text: as §1, §2

[9] = tested on: corn; assay: Test E postemergence; assay type: in vivo, Zea mays
Procedure, shortened: as §3

[10] = tested on: wild poinsettia; assay: Test E postemergence; assay type: in vivo, Euphorbia heterophylla
Procedure, shortened: as §3

[11] = tested on: palmer pigweed; assay: Test E postemergence; assay type: in vivo, Amaranthus palmeri
Procedure, shortened: as §3

[12] = tested on: barnyardgrass; assay: Test E postemergence; assay type: in vivo, Echinochloa crus-galli
Procedure, shortened: as §3

[13] = Postemergence, 31 g ai/ha, scale 0 to 100
[14] = Postemergence, 62 g ai/ha, scale 0 to 100
[15] = Postemergence, 125 g ai/ha, scale 0 to 100
[16] = Postemergence, 250 g ai/ha, scale 0 to 100
[17] = postemergence, 16 g ai/ha, scale 0 to 100, 0 no effect, 100 complete control

Fc1cnc(Oc2cccc(C(F)F)c2-n2cc(C(F)(F)F)cn2)nc1 [Compound 164]
Corn plant response rating ([1]; 16 g ai/ha): 0 | Corn plant response rating ([1]; 31 g ai/ha): 0 | Corn plant response rating ([1]; 62 g ai/ha): 0 | Plant response rating, Corn ([1]; 125 g ai/ha): 0 | Surinam Grass plant response rating ([2]; 31 g ai/ha): 0 | Surinam Grass plant response rating ([2]; 62 g ai/ha): 20 | Plant response rating, Surinam Grass ([2]; 125 g ai/ha): 20 | Panicum, Fall plant response rating ([3]; 31 g ai/ha): 0 | Panicum, Fall plant response rating ([3]; 62 g ai/ha): 30 | Plant response rating, Panicum, Fall ([3]; 125 g ai/ha): 98 | Foxtail, Green plant response rating ([4]; 16 g ai/ha): 0 | Foxtail, Green plant response rating ([4]; 31 g ai/ha): 25 | Foxtail, Green plant response rating ([4]; 62 g ai/ha): 60 | Plant response rating, Foxtail, Green ([4]; 125 g ai/ha): 100 | Barnyardgrass plant response rating ([5]; 16 g ai/ha): 0 | Barnyardgrass plant response rating ([5]; 31 g ai/ha): 0 | Barnyardgrass plant response rating ([5]; 62 g ai/ha): 0 | Plant response rating, Barnyardgrass ([5]; 125 g ai/ha): 65 | Arrowleaf Sida plant response rating ([6]; 16 g ai/ha): 40 | Arrowleaf Sida plant response rating ([6]; 31 g ai/ha): 100 | Arrowleaf Sida plant response rating ([6]; 62 g ai/ha): 100 | Plant response rating, Arrowleaf Sida ([6]; 125 g ai/ha): 100 | Field Bindweed plant response rating ([7]; 16 g ai/ha): 0 | Field Bindweed plant response rating ([7]; 31 g ai/ha): 0 | Field Bindweed plant response rating ([7]; 62 g ai/ha): 30 | Plant response rating, Field Bindweed ([7]; 125 g ai/ha): 50 | Kochia plant response rating ([8]; 31 g ai/ha): 0 | Kochia plant response rating ([8]; 62 g ai/ha): 75 | Plant response rating, Kochia ([8]; 125 g ai/ha): 100

N#Cc1cnn(-c2c(C#N)cccc2Oc2ncc(Cl)cn2)c1 [Compound 200]
Corn plant response rating ([1]; 16 g ai/ha): 0 | Corn plant response rating ([1]; 31 g ai/ha): 5 | Corn plant response rating ([1]; 62 g ai/ha): 30 | Plant response rating, Corn ([1]; 125 g ai/ha): 30 | Plant response rating, Corn ([1]; 250 g ai/ha): 75 | Surinam Grass plant response rating ([2]; 31 g ai/ha): 5 | Surinam Grass plant response rating ([2]; 62 g ai/ha): 70 | Plant response rating, Surinam Grass ([2]; 125 g ai/ha): 100 | Plant response rating, Surinam Grass ([2]; 250 g ai/ha): 100 | Panicum, Fall plant response rating ([3]; 31 g ai/ha): 75 | Panicum, Fall plant response rating ([3]; 62 g ai/ha): 95 | Plant response rating, Panicum, Fall ([3]; 125 g ai/ha): 100 | Plant response rating, Panicum, Fall ([3]; 250 g ai/ha): 100 | Foxtail, Green plant response rating ([4]; 16 g ai/ha): 0 | Foxtail, Green plant response rating ([4]; 31 g ai/ha): 5 | Foxtail, Green plant response rating ([4]; 62 g ai/ha): 30 | Plant response rating, Foxtail, Green ([4]; 125 g ai/ha): 75 | Plant response rating, Foxtail, Green ([4]; 250 g ai/ha): 100 | Barnyardgrass plant response rating ([5]; 16 g ai/ha): 0 | Barnyardgrass plant response rating ([5]; 31 g ai/ha): 0 | Barnyardgrass plant response rating ([5]; 62 g ai/ha): 10 | Plant response rating, Barnyardgrass ([5]; 125 g ai/ha): 60 | Plant response rating, Barnyardgrass ([5]; 250 g ai/ha): 95 | Arrowleaf Sida plant response rating ([6]; 16 g ai/ha): 20 | Arrowleaf Sida plant response rating ([6]; 31 g ai/ha): 20 | Arrowleaf Sida plant response rating ([6]; 62 g ai/ha): 70 | Plant response rating, Arrowleaf Sida ([6]; 125 g ai/ha): 100 | Plant response rating, Arrowleaf Sida ([6]; 250 g ai/ha): 100 | Field Bindweed plant response rating ([7]; 16 g ai/ha): 5 | Field Bindweed plant response rating ([7]; 31 g ai/ha): 10 | Field Bindweed plant response rating ([7]; 62 g ai/ha): 40 | Plant response rating, Field Bindweed ([7]; 125 g ai/ha): 70 | Plant response rating, Field Bindweed ([7]; 250 g ai/ha): 95 | Kochia plant response rating ([8]; 31 g ai/ha): 60 | Kochia plant response rating ([8]; 62 g ai/ha): 95 | Plant response rating, Kochia ([8]; 125 g ai/ha): 100 | Plant response rating, Kochia ([8]; 250 g ai/ha): 100 | Plant response rating, Corn [9, 13]: 10 | Plant response rating, Corn [9, 14]: 15 | Plant response rating, Corn [9, 15]: 20 | Plant response rating, Corn [9, 16]: 25 | Plant response rating, Corn [9, 17]: 10 | Plant response rating, Poinsettia, Wild [10, 13]: 80 | Plant response rating, Poinsettia, Wild [10, 14]: 70 | Plant response rating, Poinsettia, Wild [10, 15]: 90 | Plant response rating, Poinsettia, Wild [10, 16]: 90 | Plant response rating, Poinsettia, Wild [10, 17]: 50 | Plant response rating, Pigweed, Palmer [11, 13]: 70 | Plant response rating, Pigweed, Palmer [11, 14]: 75 | Plant response rating, Pigweed, Palmer [11, 15]: 98 | Plant response rating, Pigweed, Palmer [11, 16]: 100 | Plant response rating, Pigweed, Palmer [11, 17]: 40 | Plant response rating, Barnyardgrass [12, 13]: 0 | Plant response rating, Barnyardgrass [12, 14]: 0 | Plant response rating, Barnyardgrass [12, 15]: 20 | Plant response rating, Barnyardgrass [12, 16]: 40 | Plant response rating, Barnyardgrass [12, 17]: 0
